{"source": "patent US20110060057A1", "about": "“Inhibition of the Survival of Skin Cancer by Cyclohexenone Compounds from Antrodia Camphorata” (GOLDEN BIOTECHNOLOGY CORPORATION, priority 2009, published 2011)", "test_system": "skin cancer cell line A431", "assay": "In vitro survival assay (MTT) for anti-skin cancer effects", "type": "cell-based", "conditions": "A-431, A431 human epidermoid carcinoma cell line, 48 hours treatment, read-out: IC50 (half inhibition concentration), survival of skin cancer cells", "procedure": "Inhibiting effects of skin cancer cells by cyclohexenone compounds of Antrodia camphorata from example 1 were assessed according to the anticancer-drug screening model of National Cancer Institute (NCI). The compound 4-hydroxy-2,3-dimethoxy-6-methyl-5 -(3,7,11-trimethyl-dodeca-2,6,10-trienyl)-cyclohex-2-enone from example 1 was added into the culture media of skin cancer cell line A431 to determine the survival rates. Survival of cell was analyzed using MTT assay. A431 cell line was a human epidermoid carcinoma cell line.\nMTT assay is commonly used to analyze cell proliferation, survival rate of viable cells and cytotoxicity. MTT (3[4,5-dimethylthiazol-2-yl]-2,5-diphenyltetrazolium bromide) is a yellow dye which can be converted to water-insoluble purple formazan on the reductive cleavage of its tetrazolium ring by the succinate tetrazolium reductase in mitochondria of cells. The amount of formazan produced is used to detect the number of viable cells and calculate the survival rates. […]\nAfterward, 2.5 mg/ml of MTT solution was added to each well and incubated in the dark for 4 hours, followed by the addition of 100 μl of lysis buffer to stop the reaction. The absorbances were measured at 570 nm with an ELISA Reader to determine the survival rates.", "data": [{"molecule": "COC1=C(OC)C(O)C(C/C=C(\\C)CC/C=C(\\C)CCC=C(C)C)C(C)C1=O", "note": "(stereo not shown) [formula 2, 4-hydroxy-2,3-dimethoxy-6-methyl-5-(3,7,11-trimethyl-dodeca-2,6,10-trienyl)-cyclohex-2-enone]", "values": [{"measurement": "IC50", "result": 0.18, "unit": "µg/mL"}]}]}
